In US20170190705A1, “Compositions and Methods for Inhibiting BMP” (THE BRIGHAM AND WOMAN'S HOSPITAL, INC., priority 2014, published 2017):

Key:
Assay type in all cases: biochemical
TXK = biological target: T1, TXK (Homo sapiens, UniProt P42681); test: Kinome profiling TXK; settings: read-out: Inhibitory activity TXK; for inhibition at 0.1 µM: 100 nM
T1 sequence (P42681 1-527): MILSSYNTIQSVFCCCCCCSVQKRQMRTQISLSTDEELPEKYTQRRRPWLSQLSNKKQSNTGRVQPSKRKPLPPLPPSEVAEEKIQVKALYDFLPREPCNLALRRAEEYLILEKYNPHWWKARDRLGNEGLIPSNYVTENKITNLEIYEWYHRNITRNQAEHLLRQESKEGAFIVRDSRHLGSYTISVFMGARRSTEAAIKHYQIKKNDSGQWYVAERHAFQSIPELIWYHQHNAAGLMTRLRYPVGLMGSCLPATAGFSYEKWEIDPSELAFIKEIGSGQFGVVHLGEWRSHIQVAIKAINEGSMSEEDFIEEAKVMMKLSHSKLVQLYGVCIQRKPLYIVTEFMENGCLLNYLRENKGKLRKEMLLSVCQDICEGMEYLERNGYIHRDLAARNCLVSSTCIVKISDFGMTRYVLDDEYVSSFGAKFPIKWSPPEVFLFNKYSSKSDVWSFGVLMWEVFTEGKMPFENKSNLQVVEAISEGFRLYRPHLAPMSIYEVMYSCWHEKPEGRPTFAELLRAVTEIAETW
Procedure: (§1) . The kinome-wide selectivity was determined following the methods previously reported by Mohedas et al., ACS Chem Biol 2013, 8, 1291-1302 and Sanvitale et al., PLoS One 2013, 8, e62721.

MRCK-β = MRCK-β (Homo sapiens, UniProt Q9Y5S2); test: Kinome profiling MRCK-β; settings: read-out: Inhibitory activity MRCK-β; for inhibition at 0.1 µM: 100 nM
Procedure: as §1

CK1α = CK1α (Homo sapiens, UniProt P48729); test: Kinome profiling CK1α; settings: read-out: Inhibitory activity CK1α; for inhibition at 0.1 µM: 100 nM
Procedure: as §1

RET = RET (Homo sapiens, UniProt P07949); test: Kinome profiling RET; settings: read-out: Inhibitory activity RET; for inhibition at 0.1 µM: 100 nM
Procedure: as §1

AURORA-B = AURORA-B (Homo sapiens, UniProt Q96GD4); test: Kinome profiling AURORA-B; settings: read-out: Inhibitory activity AURORA-B; for inhibition at 0.1 µM: 100 nM
Procedure: as §1

PKC-α = PKC-α (Homo sapiens, UniProt P17252); test: Kinome profiling PKC-α; settings: read-out: Inhibitory activity PKC-α; for inhibition at 0.1 µM: 100 nM
Procedure: as §1

PAK5 = PAK5 (Homo sapiens, UniProt Q9P286); test: Kinome profiling PAK5; settings: read-out: Inhibitory activity PAK5; for inhibition at 0.1 µM: 100 nM
Procedure: as §1

PKC-γ = PKC-γ (Homo sapiens, UniProt P05129); test: Kinome profiling PKC-γ; settings: read-out: Inhibitory activity PKC-γ; for inhibition at 0.1 µM: 100 nM
Procedure: as §1

CDK2/cyclinE = CDK2/cyclinE (Homo sapiens, UniProt P24941); test: Kinome profiling CDK2/cyclinE; settings: read-out: Inhibitory activity CDK2/cyclinE; for inhibition at 0.1 µM: 100 nM
Procedure: as §1

BRSK1 = biological target: T2, BRSK1 (Homo sapiens, UniProt Q8TDC3); test: Kinome profiling BRSK1; settings: read-out: Inhibitory activity BRSK1; for inhibition at 0.1 µM: 100 nM
T2 sequence (Q8TDC3 1-778): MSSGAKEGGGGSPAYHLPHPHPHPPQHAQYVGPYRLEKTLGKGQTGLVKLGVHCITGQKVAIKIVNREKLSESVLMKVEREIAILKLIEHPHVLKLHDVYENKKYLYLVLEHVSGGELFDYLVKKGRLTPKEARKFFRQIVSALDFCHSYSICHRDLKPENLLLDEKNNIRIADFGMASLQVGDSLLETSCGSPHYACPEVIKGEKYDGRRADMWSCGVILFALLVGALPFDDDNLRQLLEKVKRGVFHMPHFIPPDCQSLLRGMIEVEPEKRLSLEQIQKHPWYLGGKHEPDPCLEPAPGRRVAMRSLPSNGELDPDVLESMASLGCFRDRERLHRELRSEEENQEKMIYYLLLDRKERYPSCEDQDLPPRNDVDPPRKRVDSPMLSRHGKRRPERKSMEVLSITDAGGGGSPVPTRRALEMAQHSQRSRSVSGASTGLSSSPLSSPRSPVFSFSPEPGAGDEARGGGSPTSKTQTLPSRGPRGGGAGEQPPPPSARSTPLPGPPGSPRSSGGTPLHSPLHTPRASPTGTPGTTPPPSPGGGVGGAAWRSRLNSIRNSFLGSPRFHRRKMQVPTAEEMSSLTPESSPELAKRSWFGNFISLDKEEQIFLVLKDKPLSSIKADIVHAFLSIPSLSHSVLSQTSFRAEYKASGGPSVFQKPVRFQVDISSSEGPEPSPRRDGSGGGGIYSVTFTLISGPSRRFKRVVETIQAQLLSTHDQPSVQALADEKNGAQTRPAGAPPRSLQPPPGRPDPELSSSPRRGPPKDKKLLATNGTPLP
Procedure: as §1

CDK1/cyclinB = CDK1/cyclinB (Homo sapiens, UniProt P06493); test: Kinome profiling CDK1/cyclinB; settings: read-out: Inhibitory activity CDK1/cyclinB; for inhibition at 0.1 µM: 100 nM
Procedure: as §1

Sequence of PAK5 (Q9P286 whole entry): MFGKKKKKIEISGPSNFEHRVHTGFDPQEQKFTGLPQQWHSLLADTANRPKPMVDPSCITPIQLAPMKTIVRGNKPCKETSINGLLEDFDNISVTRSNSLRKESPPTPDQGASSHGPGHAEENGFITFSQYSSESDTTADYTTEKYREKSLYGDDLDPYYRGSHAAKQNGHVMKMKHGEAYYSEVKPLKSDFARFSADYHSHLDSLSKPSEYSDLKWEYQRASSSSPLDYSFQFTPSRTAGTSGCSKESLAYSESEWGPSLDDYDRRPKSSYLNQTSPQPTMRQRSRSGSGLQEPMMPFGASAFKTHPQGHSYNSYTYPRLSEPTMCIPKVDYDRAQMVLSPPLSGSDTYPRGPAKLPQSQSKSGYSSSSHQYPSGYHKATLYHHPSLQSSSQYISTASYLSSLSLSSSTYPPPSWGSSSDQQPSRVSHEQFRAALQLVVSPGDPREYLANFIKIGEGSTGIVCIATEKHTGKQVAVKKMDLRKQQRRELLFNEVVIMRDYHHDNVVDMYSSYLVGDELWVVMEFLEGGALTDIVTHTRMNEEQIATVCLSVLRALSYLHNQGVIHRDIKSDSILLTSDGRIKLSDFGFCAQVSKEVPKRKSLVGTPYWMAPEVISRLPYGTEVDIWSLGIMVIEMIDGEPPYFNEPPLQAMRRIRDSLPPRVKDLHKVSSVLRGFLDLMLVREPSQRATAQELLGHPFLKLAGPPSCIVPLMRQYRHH
Sequence of MRCK-β (Q9Y5S2 whole entry): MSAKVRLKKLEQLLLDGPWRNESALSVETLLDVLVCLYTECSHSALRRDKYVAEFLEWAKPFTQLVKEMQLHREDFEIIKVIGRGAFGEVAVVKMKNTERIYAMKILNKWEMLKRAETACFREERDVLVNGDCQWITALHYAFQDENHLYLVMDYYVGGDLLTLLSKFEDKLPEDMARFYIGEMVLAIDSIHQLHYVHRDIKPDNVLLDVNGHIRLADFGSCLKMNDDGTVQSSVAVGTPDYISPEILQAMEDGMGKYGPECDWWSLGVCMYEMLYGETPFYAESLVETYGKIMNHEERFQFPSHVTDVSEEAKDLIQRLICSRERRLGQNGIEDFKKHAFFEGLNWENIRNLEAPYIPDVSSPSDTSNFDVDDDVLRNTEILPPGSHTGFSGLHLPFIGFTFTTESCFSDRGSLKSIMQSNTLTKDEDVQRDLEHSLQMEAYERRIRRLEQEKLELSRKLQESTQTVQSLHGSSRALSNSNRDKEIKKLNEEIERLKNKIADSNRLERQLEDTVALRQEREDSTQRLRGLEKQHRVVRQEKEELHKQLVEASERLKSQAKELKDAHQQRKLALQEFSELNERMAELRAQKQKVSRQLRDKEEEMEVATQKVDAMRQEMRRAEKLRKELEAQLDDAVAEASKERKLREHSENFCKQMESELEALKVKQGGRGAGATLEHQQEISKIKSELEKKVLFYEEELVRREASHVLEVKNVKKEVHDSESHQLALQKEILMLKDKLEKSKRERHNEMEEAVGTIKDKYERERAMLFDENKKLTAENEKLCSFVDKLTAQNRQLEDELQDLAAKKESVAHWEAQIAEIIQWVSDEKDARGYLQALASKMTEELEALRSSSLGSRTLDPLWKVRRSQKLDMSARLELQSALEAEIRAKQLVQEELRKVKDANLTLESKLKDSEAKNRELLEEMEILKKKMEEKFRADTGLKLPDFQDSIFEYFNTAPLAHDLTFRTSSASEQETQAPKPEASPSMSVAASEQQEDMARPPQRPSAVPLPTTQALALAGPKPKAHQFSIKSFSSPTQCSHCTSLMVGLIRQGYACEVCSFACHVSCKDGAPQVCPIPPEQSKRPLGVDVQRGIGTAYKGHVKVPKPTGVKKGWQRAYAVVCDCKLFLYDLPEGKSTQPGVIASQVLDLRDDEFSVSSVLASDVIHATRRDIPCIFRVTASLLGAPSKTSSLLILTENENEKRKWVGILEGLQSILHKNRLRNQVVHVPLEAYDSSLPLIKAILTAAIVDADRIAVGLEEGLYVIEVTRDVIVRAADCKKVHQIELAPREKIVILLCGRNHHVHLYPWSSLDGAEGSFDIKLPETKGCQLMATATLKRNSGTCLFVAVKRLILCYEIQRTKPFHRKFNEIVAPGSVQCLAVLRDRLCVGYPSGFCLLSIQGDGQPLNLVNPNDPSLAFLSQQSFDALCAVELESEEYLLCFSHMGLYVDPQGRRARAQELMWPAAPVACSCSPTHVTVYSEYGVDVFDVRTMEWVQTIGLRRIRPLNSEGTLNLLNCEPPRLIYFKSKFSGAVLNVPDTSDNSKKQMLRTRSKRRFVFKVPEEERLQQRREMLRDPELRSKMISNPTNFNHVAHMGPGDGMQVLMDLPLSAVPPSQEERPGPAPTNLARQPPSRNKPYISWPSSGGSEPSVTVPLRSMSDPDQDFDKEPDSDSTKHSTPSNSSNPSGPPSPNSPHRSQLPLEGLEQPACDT
Sequence of CDK1/cyclinB (P06493 whole entry): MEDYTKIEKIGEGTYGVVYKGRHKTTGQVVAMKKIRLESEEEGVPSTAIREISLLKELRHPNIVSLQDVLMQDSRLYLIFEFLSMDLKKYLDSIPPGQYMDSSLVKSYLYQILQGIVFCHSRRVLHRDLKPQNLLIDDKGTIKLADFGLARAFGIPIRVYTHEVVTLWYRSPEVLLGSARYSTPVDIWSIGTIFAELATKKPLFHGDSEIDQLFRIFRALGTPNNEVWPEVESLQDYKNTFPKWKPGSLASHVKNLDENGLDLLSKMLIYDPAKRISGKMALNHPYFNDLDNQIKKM
Sequence of CDK1/cyclinB (P14635 whole entry partner): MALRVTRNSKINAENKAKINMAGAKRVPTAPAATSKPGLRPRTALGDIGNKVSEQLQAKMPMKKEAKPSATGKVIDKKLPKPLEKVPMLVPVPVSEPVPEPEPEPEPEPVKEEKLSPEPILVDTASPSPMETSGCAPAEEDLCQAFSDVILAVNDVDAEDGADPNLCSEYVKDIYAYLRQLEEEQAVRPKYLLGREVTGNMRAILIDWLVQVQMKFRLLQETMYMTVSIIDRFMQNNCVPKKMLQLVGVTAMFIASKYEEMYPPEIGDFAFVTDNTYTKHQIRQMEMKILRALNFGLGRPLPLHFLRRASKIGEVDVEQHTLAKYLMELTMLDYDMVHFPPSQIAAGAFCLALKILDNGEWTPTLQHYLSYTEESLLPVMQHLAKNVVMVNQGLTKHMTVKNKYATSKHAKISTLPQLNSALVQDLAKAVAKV
Sequence of RET (P07949 29-1114): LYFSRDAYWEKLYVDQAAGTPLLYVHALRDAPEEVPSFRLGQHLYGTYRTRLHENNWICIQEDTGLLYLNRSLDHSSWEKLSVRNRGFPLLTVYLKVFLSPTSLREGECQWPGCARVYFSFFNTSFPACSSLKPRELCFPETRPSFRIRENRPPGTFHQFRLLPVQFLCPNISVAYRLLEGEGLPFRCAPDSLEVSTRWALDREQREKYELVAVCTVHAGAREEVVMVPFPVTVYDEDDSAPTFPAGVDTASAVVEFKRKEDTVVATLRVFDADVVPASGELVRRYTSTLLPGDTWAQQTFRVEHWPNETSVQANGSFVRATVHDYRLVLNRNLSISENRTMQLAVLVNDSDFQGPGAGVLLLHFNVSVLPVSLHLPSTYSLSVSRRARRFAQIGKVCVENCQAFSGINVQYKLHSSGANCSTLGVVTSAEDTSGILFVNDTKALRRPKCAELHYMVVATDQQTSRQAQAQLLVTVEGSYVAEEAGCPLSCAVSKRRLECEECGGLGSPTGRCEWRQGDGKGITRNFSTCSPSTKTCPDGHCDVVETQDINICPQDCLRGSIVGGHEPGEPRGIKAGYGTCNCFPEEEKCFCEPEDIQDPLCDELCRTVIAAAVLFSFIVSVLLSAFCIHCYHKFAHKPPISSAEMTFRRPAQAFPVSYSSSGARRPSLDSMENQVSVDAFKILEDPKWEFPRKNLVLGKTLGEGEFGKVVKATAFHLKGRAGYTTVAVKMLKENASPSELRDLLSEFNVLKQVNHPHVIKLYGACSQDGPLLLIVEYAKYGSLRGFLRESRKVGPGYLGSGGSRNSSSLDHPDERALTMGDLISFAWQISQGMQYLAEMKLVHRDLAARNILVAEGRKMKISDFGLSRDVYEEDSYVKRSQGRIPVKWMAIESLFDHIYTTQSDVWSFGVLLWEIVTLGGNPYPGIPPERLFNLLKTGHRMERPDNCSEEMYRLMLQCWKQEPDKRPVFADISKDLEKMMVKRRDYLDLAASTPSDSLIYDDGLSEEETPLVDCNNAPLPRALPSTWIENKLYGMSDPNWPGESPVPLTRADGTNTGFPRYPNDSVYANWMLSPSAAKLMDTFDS

SMILES | inhibition at 0.1 µM (TXK) | inhibition at 1 µM (TXK) | inhibition at 0.1 µM (MRCK-β) | inhibition at 1 µM (MRCK-β) | inhibition at 0.1 µM (CK1α) | inhibition at 1 µM (CK1α) | inhibition at 0.1 µM (RET) | inhibition at 1 µM (RET) | inhibition at 0.1 µM (AURORA-B) | inhibition at 1 µM (AURORA-B) | inhibition at 0.1 µM (PKC-α) | inhibition at 1 µM (PKC-α) | inhibition at 0.1 µM (PAK5) | inhibition at 1 µM (PAK5) | inhibition at 0.1 µM (PKC-γ) | inhibition at 1 µM (PKC-γ) | inhibition at 0.1 µM (CDK2/cyclinE) | inhibition at 1 µM (CDK2/cyclinE) | inhibition at 0.1 µM (BRSK1) | inhibition at 1 µM (BRSK1) | other results
COc1cc(-c2cc(-c3ccc(N4CCNCC4)cc3)cnc2C)cc(OC)c1OC [Compound 10, 1-(4-(6-methyl-5-(3,4,5-trimethoxyphenyl)pyridin-3-yl)phenyl)piperazine] | 12% | 14% | 0% | 0% | 2% | 7% | 2% | 2% | 2% | 3% | 2% | 3% | 1% | 1% | 3% | 5% | -1% | 3% | 1% | 1% | inhibition at 0.1 µM (CDK1/cyclinB): 2%; inhibition at 1 µM (CDK1/cyclinB): 3%
COc1cc(-c2cc(-c3ccc(N4CCNCC4)cc3)cnc2N)cc(OC)c1OC [Compound 15, 5-(4-(piperazin-1-yl)phenyl)-3-(3,4,5-trimethoxyphenyl)pyridin-2-amine] | 21% | 66% | 3% | 22% | 5% | 18% | 8% | 8% | 3% | 8% | 1% | 6% | 9% | 6% | 1% | 4% | 1% | 2% | 0% | 0% | inhibition at 0.1 µM (CDK1/cyclinB): -1%; inhibition at 1 µM (CDK1/cyclinB): 0%
